The supplement of paper PMC12613149

Legend:
[1] = collision cross section (TIMS, N2 drift gas) of the primary ion; higher = larger gas-phase ion size
[2] = reversed-phase LC retention time (C18, 15 min MeOH gradient); higher = more hydrophobic / later elution
[3] = ionization mode: ESI+, ion species: [M+H]+
[4] = ionization mode: ESI-, ion species: [M-H]-
[5] = ionization mode: ESI+, ion species: [M]+

| SMILES | collision cross section [1, 3] | reversed-phase LC retention time [2, 3] | collision cross section [1, 4] | reversed-phase LC retention time [2, 4] | collision cross section [1, 5] | reversed-phase LC retention time [2, 5] |
| --- | --- | --- | --- | --- | --- | --- |
| CCCN(CCC)CCC [Tripropylamine] | 131.65 Å² | 6.72 min |  |  |  |  |
| Cc1nccc2c1[nH]c1ccccc12 [Harman] | 136.39 Å² | 8.86 min | 135.7 Å² | 13.4 min |  |  |
| Oc1cc(-c2ccc(Cl)cc2)ccc1Cl [3-Hydroxy-4,4'-dichlorobiphenyl] |  |  | 149.63 Å² | 16.1 min |  |  |
| C[C@]12CC[C@@H]3c4ccc(O)cc4CC[C@H]3[C@@H]1C[C@@H](O)[C@@H]2O [Estriol] |  |  | 176.65 Å² | 11.4 min |  |  |
| CCN(CC)CC#CCOC(=O)C(O)(c1ccccc1)C1CCCCC1 (stereo unspecified) [Oxybutynin] | 187.9 Å² | 13.4 min |  |  |  |  |
| CCC(C)OC(=O)N1CCCCC1CCO (stereo unspecified) [Icaridin] | 152.87 Å² | 13.6 min |  |  |  |  |
| CN(C)CCC(c1ccc(Cl)cc1)c1ccccn1 (stereo unspecified) [Chlorpheniramine] | 164.13 Å² | 10.8 min |  |  |  |  |
| CCOC(=O)CC(O)(CC(=O)OCC)C(=O)OCC [Triethylcitrate] | 159.4 Å² | 11.8 min |  |  |  |  |
| O=S(=O)(O)C(F)(F)C(F)(F)C(F)(F)C(F)(F)F [Perfluorobutanesulfonic acid] |  |  | 132.6 Å² | 11.3 min |  |  |
| C[C@@H](CCC(=O)O)C1CCC2C3C(=O)CC4C[C@H](O)CC[C@]4(C)C3CC[C@@]21C (stereo partly specified) [7-Oxolithocholic acid] | 204.58 Å² | 15.8 min | 208.67 Å² | 14.3 min |  |  |
| COP(=O)(OC)C(O)C(Cl)(Cl)Cl (stereo unspecified) [Trichlorfon] | 138.18 Å² | 9.07 min |  |  |  |  |
| CCCc1nc(C)c2c(=O)nc(-c3cc(S(=O)(=O)N4CCN(CC)CC4)ccc3OCC)[nH]n12 [Vardenafil] | 227.75 Å² | 12 min | 219.66 Å² | 14.9 min |  |  |
| CCCC1COC(Cn2cncn2)(c2ccc(Cl)cc2Cl)O1 (stereo unspecified) [Propiconazole] | 179.72 Å² | 15.7 min |  |  |  |  |
| CC(C)CC(C)NC1=CC(=O)C(Nc2ccccc2)=CC1=O (stereo unspecified) [6PPD-Quinone] | 181.85 Å² | 15.6 min |  |  |  |  |
| CC(C)NCC(O)COc1ccc(COCCOC(C)C)cc1 (stereo unspecified) [Bisoprolol] | 191.63 Å² | 11 min |  |  |  |  |
| O=S(=O)(O)NC1CCCCC1 [Cyclamate] |  |  | 138.05 Å² | 6.16 min |  |  |
| CCCCCCCCCC[N+](C)(C)CCCCCCCCCC [Didecyldimethylammonium] |  |  |  |  | 211.39 Å² | 17.3 min |
| Nc1ccc2nc3c(N)cccc3nc2c1 [1,7-Diaminophenazine] | 143.6 Å² | 8.4 min |  |  |  |  |
| Cc1cc(-c2ccc(N)c(C)c2)ccc1N [o-Tolidine] | 165.69 Å² | 7.76 min |  |  |  |  |
| C/C=C1\N(C)C(C)CC1(c1ccccc1)c1ccccc1 (stereo unspecified) [EDDP] | 166.21 Å² | 11.5 min |  |  |  |  |
| CCNc1nc(=O)nc(NC(C)(C)C)[nH]1 [Terbuthylazine-2-hydroxy] |  |  | 151.91 Å² | 12.4 min |  |  |

| SMILES | collision cross section [1, 3] | reversed-phase LC retention time [2, 3] | collision cross section [1, 4] | reversed-phase LC retention time [2, 4] | collision cross section [1, 5] | reversed-phase LC retention time [2, 5] |
| --- | --- | --- | --- | --- | --- | --- |
| CCNC(=O)c1cccc(C)c1 [N-Ethyl-3-methylbenzamide] | 135.66 Å² | 10.7 min |  |  |  |  |
| CC(C)C1CCC(Cc2ccc(Cl)cc2)C1(O)Cn1cncn1 (stereo unspecified) [Ipconazole] | 174.42 Å² | 16.4 min |  |  |  |  |
| CCNC(=O)[C@@H](C)OC(=O)Nc1ccccc1 [Carbetamide] | 155.79 Å² | 11 min |  |  |  |  |
| c1ccc2sc(N3CCOCC3)nc2c1 [2(4-morpholinyl)benzothiazole] | 145.3 Å² | 12.6 min |  |  |  |  |
| COCCN(C(=O)CS(=O)(=O)O)c1c(C)cccc1C [Dimethachlor ESA] | 164.03 Å² | 10 min | 167.03 Å² | 9.95 min |  |  |
| Cc1nc2n(c(=O)c1CCN1CCC(c3noc4cc(F)ccc34)CC1)CCCC2 [Risperidone] | 205.9 Å² | 10.4 min |  |  |  |  |
| Nc1ccc2nc3ccc(N)cc3nc2c1 [2,8-Diaminophenazine] | 143.53 Å² | 8.22 min |  |  |  |  |
| Cn1ncc(N)c(Cl)c1=O [Methyldesphenylchloridazon] | 123.51 Å² | 5.06 min |  |  |  |  |
| CCN(CC)c1nc(C)cc(OP(=S)(OC)OC)n1 [Pirimiphos-methyl] | 167.52 Å² | 15.7 min |  |  |  |  |
| COc1cc(OC)nc(NC(=O)NS(=O)(=O)N(C)S(C)(=O)=O)n1 [Amidosulfuron] | 175.88 Å² | 12.1 min | 179.05 Å² | 8.09 min |  |  |
| COc1cc(OC)nc(NC(=O)NS(=O)(=O)c2ncccc2C(=O)N(C)C)n1 [Nicosulfuron] | 193.46 Å² | 11.4 min | 194.5 Å² | 8.07 min |  |  |
| Oc1ccccc1-c1ccccc1 [2-Phenylphenol] |  |  | 134.42 Å² | 13.9 min |  |  |
| N#Cc1nn(-c2c(Cl)cc(C(F)(F)F)cc2Cl)c(N)c1SC(F)(F)F [Fipronil sulfide] |  |  | 173.94 Å² | 15.8 min |  |  |
| Cc1cccc(C)c1N(Cn1cccn1)C(=O)CS(=O)CC(=O)O (stereo unspecified) [Metazachlor BH 479-9] | 175.08 Å² | 9.7 min | 178.82 Å² | 8.94 min |  |  |
| C[N+]1(C)CCCCC1 [Mepiquat] |  |  |  |  | 118.75 Å² | 1.01 min |
| CN(C)C(=O)Nc1ccc(Oc2ccc(Cl)cc2)cc1 [Chloroxuron] | 175 Å² | 14.6 min |  |  |  |  |
| CC(C)(c1ccc(O)c(-c2ccccc2)c1)c1ccc(O)c(-c2ccccc2)c1 [Bisphenol PH] |  |  | 204.63 Å² | 17.2 min |  |  |
| CCCCCCCCCCCCCCOS(=O)(=O)O [Tetradecylsulfate] |  |  | 175.12 Å² | 17.2 min |  |  |
| CC(C)(C)c1cc(-n2nc3ccc(Cl)cc3n2)c(O)c(C(C)(C)C)c1 [UV-327] |  |  | 199.94 Å² | 22 min |  |  |
| CCCCCCCCCCC[C@@H](C[C@@H]1OC(=O)[C@H]1CCCCCC)OC(=O)[C@H](CC(C)C)NC=O [Orlistat] |  |  | 232.61 Å² | 19.9 min |  |  |
| CC(C)(Oc1ccc(CCNC(=O)c2ccc(Cl)cc2)cc1)C(=O)O [Bezafibrate] | 179.03 Å² | 14 min | 181.16 Å² | 12.3 min |  |  |

| SMILES | collision cross section [1, 3] | reversed-phase LC retention time [2, 3] | collision cross section [1, 4] | reversed-phase LC retention time [2, 4] | collision cross section [1, 5] | reversed-phase LC retention time [2, 5] |
| --- | --- | --- | --- | --- | --- | --- |
| CN=C(NC#N)NCCSCc1nc[nH]c1C [Cimetidine] | 158.06 Å² | 6.06 min | 165.63 Å² | 8.43 min |  |  |
| CC[C@H]1OC(=O)[C@H](C)[C@@H](O[C@H]2C[C@@](C)(OC)[C@@H](O)[C@H](C)O2)[C@H](C)[C@@H](O[C@@H]2O[C@H](C)C[C@H](N(C)C)[C@H]2O)[C@](C)(O)C[C@@H](C)C(=O)[C@H](C)[C@@H](O)[C@]1(C)O [Erythromycin] | 259.69 Å² | 13 min |  |  |  |  |
| Nc1nc(N)nc(NC2CC2)n1 [Cyromazine] | 134.76 Å² | 3.4 min |  |  |  |  |
| CC(C)NCC(O)c1ccc(NS(C)(=O)=O)cc1 (stereo unspecified) [Sotalol] | 166.72 Å² | 5.7 min | 170.22 Å² | 7.58 min |  |  |
| CCC(C)(C)C(=O)OC1=C(c2ccc(Cl)cc2Cl)C(=O)OC12CCCCC2 [Spirodiclofen] | 193.38 Å² | 11.5 min |  |  |  |  |
| CC(C)c1ccc2sc3ccccc3c(=O)c2c1 [2-Isopropylthioxanthone] | 155.68 Å² | 17.1 min |  |  |  |  |
| CC(C)(c1cc(Br)c(O)c(Br)c1)c1cc(Br)c(O)c(Br)c1 [Tetrabromobisphenol A] |  |  | 192.83 Å² | 15.3 min |  |  |
| COc1cc(C)c(C(=O)c2c(OC)ccc(Br)c2C)c(OC)c1OC [Metrafenone] | 184.27 Å² | 15.9 min |  |  |  |  |
| CC(C)(c1ccc(OCC(O)CCl)cc1)c1ccc(OCC(O)CCl)cc1 (stereo unspecified) [Bisphenol A bis(3-chloro-2-hydroxypropyl) ether] | 194.74 Å² | 14.2 min |  |  |  |  |
| CC(CCOC(=O)c1ccccc1C(=O)OCCC(C)CC(C)(C)C)CC(C)(C)C (stereo unspecified) [Di-isononyl phthalate] | 224 Å² | 19.6 min |  |  |  |  |
| CCCCCCCCCCCOC(=O)c1ccccc1C(=O)OCCCCCCCCCCC [Diundecylphthalate] | 241.8 Å² | 20.8 min |  |  |  |  |
| CCCN(CCC)C(=O)SCc1ccccc1 [Prosulfocarb] | 158.12 Å² | 16.4 min |  |  |  |  |
| O=S(=O)(O)C(F)(F)C(F)(F)C(F)(F)C(F)(F)C(F)(F)C(F)(F)C(F)(F)F [Perfluoroheptanesulfonic acid] |  |  | 159.45 Å² | 14.7 min |  |  |
| CCNc1nc(N)nc(Cl)n1 [Atrazine desisopropyl] | 132.48 Å² | 8.1 min |  |  |  |  |
| O=C(Nc1ccccc1)N(Cc1ccc(Cl)cc1)C1CCCC1 [Pencycuron] | 181.17 Å² | 16.1 min |  |  |  |  |
| C[C@H]1C[C@H]2[C@@H]3CCC4=CC(=O)C=C[C@]4(C)[C@@]3(Cl)[C@@H](O)C[C@]2(C)[C@@]1(O)C(=O)CO [Beclomethasone] | 192.43 Å² | 13.3 min | 194.28 Å² | 13.6 min |  |  |
| CCN1CCCC1=O [1-Ethyl-2-pyrrolidinone] | 120.11 Å² | 6.97 min |  |  |  |  |
| CC(C)(c1ccc(O)cc1)c1ccc(O)cc1 [Bisphenol A] |  |  | 161.33 Å² | 13.4 min |  |  |
| NS(=O)(=O)C(F)(F)C(F)(F)C(F)(F)C(F)(F)C(F)(F)C(F)(F)C(F)(F)C(F)(F)F [Perfluorooctanesulfonamide] |  |  | 169.81 Å² | 15.7 min |  |  |
| CCCCCCCCn1sc(Cl)c(Cl)c1=O [DCOIT] | 166.39 Å² | 16.9 min |  |  |  |  |
